Measurements as given in publication PMC12033163, “Tumor-specific biochemical nanoconversion of self-assembled peptide-conjugated paclitaxel-docetaxel-based nanoparticles” (Nano Convergence, 2025).
Peptide text beside a SMILES is read from it.

Tests used:
Solubility assessment = details: for appearance of solution in 3% DMSO: 0.3 mg/mL in water (DW) with 3% DMSO; for appearance of solution in 3% DMSO / appearance of solution in 10% DMSO: visual images; for appearance of solution in 10% DMSO: 0.3 mg/mL in water with 10% DMSO
Protocol: The images aimed to observe how well these compounds dissolved in the solution. Additionally, an experiment was carried out to precisely determine the aqueous solubility values of (Ac)FRRF-DTX nanoparticles. […] […] Moreover, complementary experiments were performed to obtain accurate quantitative solubility values for (Ac)FRRF-DTX NPs.

Hep G2 cells = test: In vitro cytotoxicity assay (EZ-Cytox); type: cell-based; details: Hep G2, 48 h; for cell viability at 500 µM in 3% DMSO solution / cell viability at 500 µM: relative to untreated group; for cell viability at 500 µM in 3% DMSO solution: n = 6; for cell viability at 500 µM: n = 5-6, mean ± S.D.
Protocol: The cytotoxicity of (Ac)FRRF, de-Boc-DTX, (Ac)FRRF-DTX NPs, PTXm and PTX were evaluated using the EZ-Cytox assay on Hep G2 cell. Hep G2 was cultured in a 96-well plate at concentrations of 5.0 × 10^3 cells/well and 1.0 × 10^4 cells/well, respectively, under conditions of 37℃ and 5% CO2 for 1 h. Subsequently, cells were cultured for 48 h with concentrations ranging from 0.1 to 500 µM of each drug. Cell viability (n = 5 − 6) was measured at 450 and 600 nm absorbance using the EZ-Cytox cell viability assay kit (Daeil Lab Service, Republic of Korea) and a microplate reader (SPECTROstar Nano spectrophotometer, BMG Labtech, Germany). Cell viability was calculated by comparing the absorbance values of the measured samples with those of the control group. Additionally, to more accurately confirm the cytotoxicity of DTX and PTX with low solubility in aqueous media for Hep G2 cell, both of drug were dissolved in a 3% DMSO solution and cultured for 48 h at concentrations ranging from 0.1 to 500 µM. Cell viability was determined using the same method.

[1] = molecular target: T1, Cathepsin B from bovine spleen (Bos taurus, UniProt P07688); test: Cathepsin B cleavage assay (RP-HPLC, LC-MS); type: in vitro ADME; details: 50 µM, 25 mM MES buffer, 37℃, RP-HPLC 245 nm
T1 construct: Cathepsin B from bovine spleen; purchased Sigma-Aldrich; host or cells: bovine spleen (tissue-derived enzyme)
Excerpt: Antibiotic antimycotic solution (100X), Bio TrackerTM 488 Green Microtubule Cytoskeleton Dye, Cathepsin B from bovine spleen, Dimethyl sulfoxide (DMSO), Dulbecco’s modified Eagle’s medium (DMEM), 1-ethyl-3-(3-dimethylaminopropyl) carbodiimide (EDCI), dichloromethane (DCM), ether, phosphate-buffered saline (PBS), rhodamine B isothiocyanate (RITC), 2-(4-amidi-nophenyl)-6-indolecarbamidine dihydrochloride (DAPI), Tetramethylsilane (TMS), Dimethyl sulfoxide-d6 (DMSO-d6) were purchased from Sigma-Aldrich (St. Louis, MO, USA). Paraformaldehyde solution 4% in PBS (PFA), PierceTM BCA Protein Assay Kit were obtained from Thermo Fisher Scientific (Waltham, MA, USA). EZ-Cytox kit was purchased from DoGenBio (Seoul, Republic of Korea). Fetal bovine serum (FBS), 0.5% Trypsin-EDTA (10X) were obtained from Gibico (Waltham, MA, USA). Neutral buffered formalin (10%) was purchased from HuBenTech (Damyang, Republic of Korea).
The cathepsin B-specific cleavage of (Ac)FRRF-DTX was analyzed using reverse-phase high-performance liquid chromatography (RP-HPLC), and the molecular weight of PTXm was determined by liquid chromatography-mass spectrometry (LC-MS). […] The cleavage profile of (Ac)FRRF-DTX NPs was analyzed at 245 nm using reversed-phase high-performance liquid chromatography (RP-HPLC) under solvent gradient conditions (from 90:10 H2O/acetonitrile to 10:90 H2O/acetonitrile over 40 min). […]

[2] = Morphology / nanoparticle formation by TEM and SEM; type: physicochemical
[3] = test system: microtubules in Hep G2 cells; test: In vitro microtubule staining (BioTracker 488 Green Microtubule Cytoskeleton Dye); type: cell-based; details: Hep G2, 100 µM, 24 h, versus well-organized control
Protocol: To assess the cell death induced by PTX, PTXm, and (Ac)FRRF-DTX NPs in Hep G2 cells, an evaluation was conducted using the nucleic green reagent, and the results were visualized through imaging. Hep G2 cells cultured in high-glucose DMEM medium, maintain in a sample chamber with appropriate humidity, and kept at 37℃ with 5% CO2. The cells were cultured in 35 mm fluorescent cell culture dishes (SPL Life Science, Republic of Korea) at a concentration of 4 × 10^4 for 3 h. Subsequently, DTX, PTX, and (Ac)FRRF-DTX NPs were all treated at a concentration of 100 µM (in DMSO 2%) for 24 h. After sample treatment, cells were washed five times with DPBS solution, and in a light-protected environment, the medium was replaced with a mixture of microtubule reagent (Bio Tracker™ 488 Green Microtubule Cytoskeleton Dye, Sigma-Aldrich, MO, USA) in fresh medium at RT for 30 min. Following this, the medium was replaced with new DMEM containing 10% FBS, and images were captured using ECLIPSE Ti2 Series (Nikon, Japan) with a FITC filter and quantified using ImageJ (U.S. National Institutes of Health).

Hep G2 tumors = test: In vivo antitumor test (Hep G2 xenograft); design: species or system BALB/c nude mice; details: for average tumor weight after 17 days / tumor size after 17 days: i.v. at 3 day intervals, PTX, de-Boc-DTX 5 mg/kg, NPs 10 mg/kg; for average tumor weight after 17 days: control 595.28 ± 282.98; for tumor size after 17 days: control 2161.12 ± 946.71; for TUNEL staining fluorescence intensity of tumor tissue: tumors after 17 days, ImageJ, relative to control group, n = 3
Protocol: All animal experiments were conducted in accordance with the standard regulations of the Konkuk University Animal Experimentation Ethics Committee (Ref: no. KU220748-1). Hep G2 cells at a concentration of 1.0 × 10^7 cells/100 µL were subcutaneously inoculated into the dorsal region at 6-week-old male BALB/c nude mice (Orient Bio, Seongnam, Republic of Korea). After […], when the tumor volume reached approximately 50 − 100 mm^3 (calculated as the maximum diameter × minimum diameter^2 × 0.52), the mice were divided into four groups. Mice with tumors were intravenously administered saline, de-Boc-DTX (5 mg/kg), PTX (5 mg/kg), or (Ac)FRRF-DTX NPs (10 mg/kg; based on 5 mg/kg of de-Boc-DTX) at 3 days intervals for a total of 17 days. The body weight and tumor volume of the treated mice were measured every other day using a digital caliper (ASIMETO, Mooresville, NC, USA). After 17 days of treatment, tumors were fixed with diluted 10% neutral pH formalin (HuBen Tech, Republic of Korea). Tumor tissues were stained with TUNEL, Ki-67, and H&E. Sections of tumor tissues stained with Ki-67 and H&E were observed using the OS-33DPM multimedia video microscope (OSUN HITECH, Republic of Korea). Additionally, tumor tissues stained with TUNEL were sliced for histological observation using an ECLIPSE Ti2 inverted microscope (Nikon, Japan), and FITC fluorescence intensity was quantified using ImageJ (U.S. National Institutes of Health) (n = 3).

[4] = In vivo blood toxicity assessment (hematology); details: normal mice, i.v.; PTX 1.5 mg/kg, NPs 3 mg/kg; blood after 7 days, n = 5
Protocol: Hematological analysis of red blood cell (RBC) and white blood cell (WBC) parameters in mice treated with (Ac)FRRF-DTX was performed through clinical pathological examinations. Normal saline (control group), de-Boc-DTX (1.5 mg/kg), PTX (1.5 mg/kg), and (Ac)FRRF-DTX NPs (3 mg/kg) were dissolved in 200 µL of normal saline and administered daily via tail vein. After 7 days, blood was drawn from the mice’s heart and collected in tubes containing EDTA to prevent coagulation. Subsequently, whole blood samples were stored for analysis. Level of RBC-related parameters (RBC, HGB, HCT, MCV, MHC, MCHC) and WBC-related parameters (WBC, PLT, NEU, LYM, MONO, EOS) were measured using a hematology analyzer (Sysmex XN series, Sysmex, Japan) (n = 5).

[5] = mouse, in vivo

Row | Compound | appearance of solution in 3% DMSO (Solubility assessment) | appearance of solution in 10% DMSO (Solubility assessment) | cell viability at 500 µM in 3% DMSO solution (Hep G2 cells) [%] | cell viability at 500 µM (Hep G2 cells; without DMSO) [%] | morphology / nanoparticle formation [2] | appearance of microtubule structures [3] | average tumor weight after 17 days (Hep G2 tumors; n = 5-7) [mg] | tumor size after 17 days (Hep G2 tumors; n = 5-7) [mm^3] | TUNEL staining fluorescence intensity of tumor tissue (Hep G2 tumors) [%] | histological toxicity in major organs (heart, liver, spleen, lungs, kidney) [5] | further results
1 | CC(=O)O[C@@]12CO[C@@H]1C[C@H](O)[C@@]1(C)C(=O)[C@H](O)C3=C(C)[C@@H](OC(=O)[C@H](O)[C@@H](NC(=O)OC(C)(C)C)c4ccccc4)C[C@@](O)([C@@H](OC(=O)c4ccccc4)[C@H]21)C3(C)C [DTX, Docetaxel] | opaque or precipitated | clear | 24.9 ± 4.6 | 57.9 ± 8.9 | – | – | – | – | – | – | –
2 | CC(=O)N[C@@H](Cc1ccccc1)C(=O)N[C@@H](CCCNC(=N)N)C(=O)N[C@@H](CCCNC(=N)N)C(=O)N[C@@H](Cc1ccccc1)C(=O)N[C@@H](c1ccccc1)[C@@H](O)C(=O)O[C@H]1C[C@@]2(O)[C@@H](OC(=O)c3ccccc3)[C@@H]3[C@]4(OC(C)=O)CO[C@@H]4C[C@H](O)[C@@]3(C)C(=O)[C@H](O)C(=C1C)C2(C)C [(Ac)FRRF-DTX, Acetylated Phenylalanine-Arginine-Arginine-Phenylalanine Docetaxel] | – | – | – | – | – | – | – | – | – | – | solubility in water (Solubility assessment; water without DMSO): 1.3 mg/20 µL; change of (Ac)FRRF-DTX in the absence of cathepsin B ([1]; 0-72 h, no cathepsin B): remained unchanged; nanoconversion of (Ac)FRRF-DTX to PTXm at 48 h ([1]; cathepsin B 50 µg/mL, 48 h): complete nanoconversion
3 | CC(=O)N[C@@H](Cc1ccccc1)C(=O)N[C@@H](CCCNC(=N)N)C(=O)N[C@@H](CCCNC(=N)N)C(=O)N[C@@H](Cc1ccccc1)C(=O)O [(Ac)FRRF, acetylated Phe-Arg-Arg-Phe peptide] (Ac-FRRF-OH) | – | – | – | 84.1 ± 6.6 | absence of nanoparticle formation | – | – | – | – | – | –
4 | CC(=O)O[C@H]1C(=O)[C@@]2(C)[C@H]([C@H](OC(=O)c3ccccc3)[C@]3(O)C[C@H](OC(=O)[C@H](O)[C@@H](NC(=O)c4ccccc4)c4ccccc4)C(C)=C1C3(C)C)[C@]1(OC(C)=O)CO[C@@H]1C[C@@H]2O [PTX, paclitaxel] | opaque or precipitated | clear | 27.4 ± 4.5 | 55.5 ± 4.9 | – | indistinct | 293.97 ± 164.22 | 1029.79 ± 752.19 | 183.71 ± 2.32 | no significant toxicity | body weight change (Hep G2 tumors; 17 days treatment, n = 5-7): no significant changes in body weight; white blood cell parameters (NEU, LYM, EOS concentrations) [4]: alterations in NEU, LYM and EOS concentrations
5 | CC(=O)O[C@@]12CO[C@@H]1C[C@H](O)[C@@]1(C)C(=O)[C@H](O)C3=C(C)[C@@H](OC(=O)[C@H](O)[C@@H](N)c4ccccc4)C[C@@](O)([C@@H](OC(=O)c4ccccc4)[C@H]21)C3(C)C [de-Boc-DTX] | – | – | – | 75.3 ± 5.4 | absence of nanoparticle formation | – | 265.94 ± 298.69 | 1262.19 ± 1209.27 | 196.50 ± 4.25 | no significant toxicity | –
6 | CC(=O)O[C@@]12CO[C@@H]1C[C@H](O)[C@@]1(C)C(=O)[C@H](O)C3=C(C)[C@@H](OC(=O)[C@H](O)[C@@H](NC(=O)[C@@H](N)Cc4ccccc4)c4ccccc4)C[C@@](O)([C@@H](OC(=O)c4ccccc4)[C@H]21)C3(C)C [PTXm] | – | – | – | 40.9 ± 10.9 | – | indistinct | – | – | – | – | IC50 (Hep G2 cells; tested 0.1-500 µM, without DMSO): 214 µM
